This passage reports CC50 results from article PMC6792352, “Limited Chemical Structural Diversity Found to Modulate Thyroid Hormone Receptor in the Tox21 Chemical Library” (Environmental Health Perspectives, 2019).

The nature of the data set: in vitro. The note with it: rat, gh3-tre-luc cells.

Structures are written as SMILES. Structures can show the parent of a compound that is named as a salt. Some results are limits rather than exact numbers.

`CCCCCC(C)N` (stereo not shown) [2-Aminoheptane sulfate] gave a CC50 at 24 h (AC50 (uM) modified / 1000) greater than 50 µM. With `N[C@@H](Cc1cc(I)c(Oc2cc(I)c(O)c(I)c2)c(I)c1)C(=O)O` [Levothyroxine], the CC50 at 24 h (AC50 (uM) modified / 1000) is greater than 60 µM. As for `COc1ccc(-c2nc3ccc(C4=NNC(=O)CC4C)cc3[nH]2)cc1` (stereo not shown) [Pimobendan hydrochloride], the midpoint of cytotoxicity (AC50 (uM) modified / 1000), the CC50 at 24 h, lay at 36.4 µM.

In turn, `Nc1ccc([N+](=O)[O-])c(N)c1` [4-Nitro-1,3-benzenediamine] showed a CC50 at 24 h (AC50 (uM) modified / 1000) of 64.4 µM.

In turn, `CC1(C)O[C@@H]2[C@@H](CO[C@@]3(COS(N)(=O)=O)OC(C)(C)O[C@@H]23)O1` [Topiramate] had a CC50 at 24 h (AC50 (uM) modified / 1000) greater than 90 µM. Still for that read-out and setting: with `COc1ccc(/C=N/NC(=O)c2ccncc2)c(C(=O)O)c1OC` [Opiniazide] the figure was greater than 50 µM; with `CC1CCCO1` (stereo not shown) [2-Methyltetrahydrofuran], greater than 90 µM; with `O=C1CCCN1C1CCCCC1` [1-Cyclohexylpyrrolidin-2-one], greater than 90 µM. On the same count and under the same terms, with `CC(C)(Cc1c[nH]c2ccccc12)NCC(O)COc1ccccc1C#N` (stereo not shown) [Bucindolol] the figure was 20.5 µM. For the setting “AC50 (uM) modified / 1000”, `CCC1=C[C@@H]2CN(C1)Cc1c([nH]c3ccccc13)[C@@](C(=O)OC)(c1cc3c(cc1OC)N(C)[C@H]1[C@@](O)(C(=O)OC)[C@H](OC(C)=O)[C@]4(CC)C=CCN5CC[C@]31[C@@H]54)C2` [Vinorelbine tartrate] displayed a half-maximal cytotoxic concentration (CC50) at 24 h of 6.67 µM. Against the preceding compound, the CC50 at 24 h is about 3.1-fold lower. In turn, `CCCNCCC` [Dipropylamine] yielded a CC50 at 24 h (AC50 (uM) modified / 1000) greater than 90 µM. Take `O=S(=O)(O)C(F)(F)C(F)(F)C(F)(F)C(F)(F)F` [Potassium perfluorobutanesulfonate]: the cytotoxic concentration (CC50) at 24 h (AC50 (uM) modified / 1000, Tox21_110001=Tox21_400051, viability, 1 nM T3 present, 24 h) was greater than 100 µM.

In turn, `CC#Cc1cc(C)nc(Nc2ccccc2)n1` [Mepanipyrim] gave a cytotoxic concentration (CC50) at 24 h (AC50 (uM) modified / 1000) greater than 90 µM.

Turning to `O=C(O)Cc1ccc(-c2ccccc2)cc1` [Felbinac], the 50% cytotoxic concentration (CC50) at 24 h (AC50 (uM) modified / 1000) is greater than 20 µM. Take `CCSC(=O)N(CC)C1CCCCC1` [Cycloate]: the CC50 at 24 h (AC50 (uM) modified / 1000) is greater than 90 µM. Same read-out and setting: to `Cc1ccc(C)o1` [2,5-Dimethylfuran] belongs greater than 90 µM. Under “AC50 (uM) modified / 1000”, `CC(=O)O[C@H](CC(=O)[O-])C[N+](C)(C)C` [Acetyl-L-carnitine hydrochloride] registered a half-maximal cytotoxic concentration (CC50) at 24 h greater than 90 µM. Regarding `CC(=O)NC(Cc1ccccc1)C(=O)O` (stereo not shown) [Afalanine], the half-maximal cytotoxic concentration (CC50) at 24 h (AC50 (uM) modified / 1000) is greater than 50 µM. On the same count and under the same terms, to `O=C1OC(CN2CCOCC2)CN1/N=C/c1ccc([N+](=O)[O-])o1` (stereo not shown) [Furaltadone hydrochloride] belongs greater than 20 µM. Same read-out and setting: to `NC=O` [Formamide] belongs greater than 100 µM; to `Fc1ccc(Br)cc1` [1-Bromo-4-fluorobenzene], greater than 90 µM.

In the case of `O=[N+]([O-])c1ccc(Oc2ccc(C(F)(F)F)cc2[N+](=O)[O-])cc1` [Fluorodifen], the CC50 at 24 h (AC50 (uM) modified / 1000, Tox21_110001=Tox21_301354, viability, 1 nM T3 present, 24 h) is greater than 90 µM. The compound `CCN(CC)CCCC(C)Nc1cc(/C=C/c2ccccc2Cl)nc2cc(Cl)ccc12` (stereo not shown) [Aminoquinol] showed a CC50 at 24 h (AC50 (uM) modified / 1000) of 20.1 µM. `COc1cc(NC(=O)CC(C)=O)c(OC)cc1Cl` [4'-Chloro-2',5'-dimethoxyacetoacetanilide] gave a half-maximal cytotoxic concentration (CC50) at 24 h (AC50 (uM) modified / 1000) greater than 90 µM. The compound `Nc1ccc(Cc2ccc(N)c(Cl)c2)cc1Cl` [4,4'-Methylenebis(2-chloroaniline)] displayed a CC50 at 24 h (AC50 (uM) modified / 1000) of 67.7 µM. On to `CCn1nc(C)c2c1C(=O)NCC(c1ccc(O)cc1)=N2` [PharmaGSID_47263], for which, under “AC50 (uM) modified / 1000”, the CC50 at 24 h was greater than 90 µM. Regarding `CCCCOCCOC(C)=O` [2-Butoxyethyl acetate], where the note is “AC50 (uM) modified / 1000”, the cytotoxic concentration (CC50) at 24 h was greater than 90 µM. The compound `CC(=O)c1ccccc1` [Acetophenone] gave a CC50 at 24 h (AC50 (uM) modified / 1000) greater than 90 µM. The same measure, in the same setting: with `O=C(C(=O)c1ccccc1)c1ccccc1` [1,2-Diphenylethanedione] the figure was greater than 90 µM; with `CCCCOC(CC)OC(C)COC(O)CC` (stereo not shown) [Tripropylene glycol butyl ether], greater than 90 µM.

`Cc1ccc2c(c1)C1CN(C)CCC1N2` (stereo not shown) [Dicarbine] yielded a 50% cytotoxic concentration (CC50) at 24 h (AC50 (uM) modified / 1000) greater than 50 µM. On to `O=C(O)COc1ccc(C(=O)c2cccs2)c(Cl)c1Cl` [Ticrynafen], for which the half-maximal cytotoxic concentration (CC50) at 24 h (AC50 (uM) modified / 1000) is greater than 50 µM. For the compound `O=C(NC(=O)c1c(F)cccc1F)Nc1ccc(Oc2ccc(C(F)(F)F)cc2Cl)cc1F` [Flufenoxuron], for the setting “AC50 (uM) modified / 1000”, the 50% cytotoxic concentration (CC50) at 24 h was 34.6 µM. With `O=C(CCCCC(=O)Nc1c(I)cc(I)c(C(=O)O)c1I)Nc1c(I)cc(I)c(C(=O)O)c1I` [Iodipamide], the 50% cytotoxic concentration (CC50) at 24 h (AC50 (uM) modified / 1000) is greater than 50 µM. The same measure, in the same setting: to `CC(O)C(CO)C(C)O` (stereo not shown) [3-(Hydroxymethyl)pentane-2,4-diol] belongs greater than 90 µM; to `COc1ccc(O)c(C(C)(C)C)c1` [Butylated hydroxyanisole], greater than 90 µM. The compound `NC(=O)c1cn(Cc2c(F)cccc2F)nn1` [Rufinamide] registered a CC50 at 24 h (AC50 (uM) modified / 1000) greater than 50 µM. Still for that read-out and setting: with `Nc1cc(Cl)c(N)c(Cl)c1` [2,6-Dichloro-1,4-benzenediamine] the figure was greater than 90 µM; with `O=P(O)(O)C(O)(Cn1ccnc1)P(=O)(O)O` [Zoledronate], greater than 50 µM. Still for that read-out and setting: to `CC(C)(O)c1ccc(C(C)(C)O)cc1` [1,4-Bis(2-hydroxy-2-propyl)benzene] belongs greater than 90 µM; to `C[C@H]1[C@H]2CC[C@H]3[C@@H]4CC=C5C[C@@H](N(C)C)CC[C@]5(C)[C@H]4CC[C@]23CN1C` [Conessine], greater than 50 µM; to `C=CCOC(=O)CCCCCC` [Prop-2-en-1-yl heptanoate], greater than 90 µM. As for `CN1CCCN=C1COC(=O)C(O)(c1ccccc1)C1CCCCC1` (stereo not shown) [Oxyphencyclimine hydrochloride], the 50% cytotoxic concentration (CC50) at 24 h (AC50 (uM) modified / 1000) is greater than 50 µM.

Compound `Cc1ccc(C(C)C)cc1O` [Isopropyl-o-cresol] yielded a 50% cytotoxic concentration (CC50) at 24 h (AC50 (uM) modified / 1000) greater than 90 µM. Still for that read-out and setting: to `CCNc1nc(Cl)nc(NC(C)C)n1` [Atrazine] belongs greater than 90 µM; to `Cc1ccccc1-n1c(C)nc2ccccc2c1=O` [Methaqualone], greater than 50 µM. In the case of `Cc1cn([C@H]2C[C@H](F)[C@@H](CO)O2)c(=O)[nH]c1=O` [Alovudine], the CC50 at 24 h (AC50 (uM) modified / 1000) was greater than 50 µM. For `CC1=C(/C=C/C(C)=C/C=C/C(C)=C/C=C/C=C(C)/C=C/C=C(C)/C=C/C2=C(C)CCCC2(C)C)C(C)(C)CCC1` [beta-Carotene], the 50% cytotoxic concentration (CC50) at 24 h (AC50 (uM) modified / 1000) was greater than 50 µM. On the same count and under the same terms, with `C1C[C@@H]2[C@H]3CC[C@H](C3)[C@@H]2C1` [Octahydro-exo-4,7-methano-1H-indene] the figure was greater than 90 µM; with `COc1ccc(C=O)cc1` [4-Methoxybenzaldehyde], greater than 90 µM; with `CCCn1c(=O)[nH]c(=O)c2[nH]cnc21` [Enprofylline], greater than 50 µM. On the same count and under the same terms, with `CC1=CC[C@H](C(C)C)C=C1` [(R)-alpha-Phellandrene] the figure was greater than 90 µM; with `CC(C)=C1CC[C@@H](C)CC1=O` [R-(+)-Pulegone], greater than 90 µM. For `O=C(c1ccccc1)C1CCCCC1` [Cyclohexylphenylketone], where the note is “AC50 (uM) modified / 1000”, the CC50 at 24 h was greater than 90 µM.

`O=C(O)C1=NN(c2ccc(S(=O)(=O)O)cc2)C(=O)C1` [Sodium 5-oxo-1-(4-sulfophenyl)-4,5-dihydro-1H-pyrazole-3-carboxylate] registered a 50% cytotoxic concentration (CC50) at 24 h (AC50 (uM) modified / 1000) greater than 90 µM. For the setting “AC50 (uM) modified / 1000”, `O[C@@H]1CO[C@H]2[C@@H]1OC[C@@H]2O` [Isosorbide] returned a half-maximal cytotoxic concentration (CC50) at 24 h greater than 50 µM. Same read-out and setting: to `O=[N+]([O-])c1cc(C(F)(F)F)ccc1Cl` [1-Chloro-2-nitro-4-(trifluoromethyl)benzene] belongs greater than 90 µM.

In turn, `CC(C)(C)C1=CC(=O)C=C(C(C)(C)C)C1=O` [2,6-Bis-(1,1-dimethylethyl)-2,5-cyclohexadiene-1,4-dione] displayed a 50% cytotoxic concentration (CC50) at 24 h (AC50 (uM) modified / 1000) greater than 90 µM. Same read-out and setting: with `CC1C2CC(CC2C2CCCC(O)C2)C1(C)C` (stereo not shown) [3-(5,5,6-Trimethylbicyclo[2.2.1]hept-2-yl)cyclohexanol] the figure was 54.6 µM.

`Cc1ccnc2c1NC(=O)c1cccnc1N2C1CC1` [Nevirapine] returned a CC50 at 24 h (AC50 (uM) modified / 1000) greater than 90 µM. On to `O=C(O)CCc1nc(-c2ccccc2)c(-c2ccccc2)o1` [Oxaprozin], for which the CC50 at 24 h (AC50 (uM) modified / 1000) was greater than 50 µM. `CCCCCCCCCCCCCOP(=O)(O)O` [Monotridecyl phosphate] gave a half-maximal cytotoxic concentration (CC50) at 24 h (AC50 (uM) modified / 1000) greater than 90 µM.

`C[N+](C)(C)CCCl` [Chlormequat chloride] yielded a cytotoxic concentration (CC50) at 24 h (AC50 (uM) modified / 1000, Tox21_110001=Tox21_200065, viability, 1 nM T3 present, 24 h) greater than 90 µM. For the setting “AC50 (uM) modified / 1000”, `Cc1cccc(C)c1OCC(C)N` (stereo not shown) [Mexiletene hydrochloride] displayed a CC50 at 24 h greater than 50 µM. With `CCCCc1ccc2[nH]c(NC(=O)OC)nc2c1` [Parbendazole], the half-maximal cytotoxic concentration (CC50) at 24 h (AC50 (uM) modified / 1000) came to 0.0667 µM. The compound `C[C@H](O)[C@H]1CC[C@H]2[C@@H]3CC[C@@H]4C[C@H](O)CC[C@]4(C)[C@H]3CC[C@]12C` [Pregnandiol] gave a CC50 at 24 h (AC50 (uM) modified / 1000) greater than 50 µM. The same measure, in the same setting: with `CCc1cccc(CC)c1N` [2,6-Diethylaniline] the figure was greater than 90 µM. `CCCCOC(=O)/C=C\C(=O)OCCCC` [Dibutyl maleate]: the CC50 at 24 h (AC50 (uM) modified / 1000) was greater than 90 µM. The same measure, in the same setting: to `Cc1cc(N)c2ccccc2[n+]1CCCCCCCCCC[n+]1c(C)cc(N)c2ccccc21` [Dequalinium dichloride] belongs 12.4 µM.

Take `CO[C@@]1(NC(=O)C2SC(=C(C(N)=O)C(=O)O)S2)C(=O)N2C(C(=O)O)=C(CSc3nnnn3C)CS[C@@H]21` (stereo partly shown) [Cefotetan]: the cytotoxic concentration (CC50) at 24 h (AC50 (uM) modified / 1000) was greater than 20 µM. `C=C[C@]1(C)C[C@@H](OC(=O)CSC(C)(C)CNC(=O)[C@H](N)C(C)C)[C@]2(C)[C@H](C)CC[C@]3(CCC(=O)[C@H]32)[C@@H](C)[C@@H]1O` [Valnemulin] registered a half-maximal cytotoxic concentration (CC50) at 24 h (AC50 (uM) modified / 1000) of 2.37 µM. For `CO[C@H]1[C@@H](O)[C@H](N)[C@@H](O[C@H]2O[C@H]([C@H](C)N)CC[C@H]2N)[C@H](O)[C@@H]1N(C)C(=O)CN` [Astromicin], the CC50 at 24 h (AC50 (uM) modified / 1000) was greater than 50 µM. In the case of `O=C(O)c1cc2ccccc2cc1O` [3-Hydroxy-2-naphthoic acid], the CC50 at 24 h (AC50 (uM) modified / 1000) was greater than 90 µM.

On to `CCCN(CCC)C(=O)Cc1c(-c2ccc(Cl)cc2)nc2ccc(Cl)cn12` [Alpidem], for which, for the setting “AC50 (uM) modified / 1000”, the 50% cytotoxic concentration (CC50) at 24 h is greater than 50 µM. Same read-out and setting: to `COc1ccccc1N1CCN(CC(O)COc2cccc3ccccc23)CC1` (stereo not shown) [Naftopidil] belongs 23.4 µM; to `CCOC(=O)CS` [Acetic acid,mercapto-,ethylester], greater than 90 µM.

In general, CC50 refers to the concentration giving 50% cytotoxicity.
